# Where a SMILES comes first, the peptide text is derived from it. Where no end group is shown, it is not given here. [ ]: non-standard residue; d: D form. Cha = N[C@@H](CC1CCCCC1)C(=O)O; NMeL = CN[C@@H](CC(C)C)C(=O)O; Orn = NCCC[C@H](N)C(=O)O
# Key:
# [1] = tested on: E. coli 45849; test: Growth inhibition assay (MIC); assay type: cell-based, Escherichia coli
# Description: (§1) The minimal inhibition concentrations (MIC) of the apidaecin-derived peptides and peptide-derivatives were determined by a growth inhibition assay using a serial peptide dilution in sterilized round-bottom 96-well plates (polystyrene, U-bottom, Greiner Bio-One GmbH) with a final volume of 100 μL per well. The bacteria, e.g., E. coli BL21 A1, were grown in nutrient broth (NB, Carl Roth GmbH+Co. KG, Karlsruhe, Germany) at 37° C. over night. To each well of the 96-well plate, 50 μL of the overnight culture adjusted to 5×10^6 CFU/mL in 1% TSB were added. Lyophilized peptides and peptidomimetics were dissolved in 1% TSB (tryptic soy broth) or water to give a final concentration of 250 μg/mL. Fifty μL of the peptide or peptidomimetics solution were added to the first well of a row on the plate and mixed. Fifty μL of the first well containing the peptide solution were transferred to the second well, mixed and again 50 μL transferred to the next well and so on. Thereby, a two-fold dilution series was obtained starting at 250 μg/mL in the first well down to 120 ng/mL in the 12th well of a row giving a final peptide or peptidomimetics concentration from 125 μg/mL (well 1) to 60 ng/mL (well 12). Plates were incubated at 37° C. for 20 hrs. The absorbance was measured at 595 nm using a TECAN micro plate spectrophotometer (Tecan, Germany). All peptides and peptidomimetics were measured in triplicates. Sterilized water was used as a negative control.
# (§2) The following multidrug resistant bacteria strains were tested: • Eschericha coli 45849 and D31, • Klebsiella pneumoniae 123132 and K6, • Salmonella typhi S5 and Salmonella enterica subsp. enterica serovar Typhimurium (ATCC 700408), • Rhizobium radiobacter (ATCC 15955 deposited as Agrobacterium tumefaciens).
# [2] = tested on: S. typhi S5; assay type: cell-based, Salmonella typhi; details: S5, 20 h
# Description: as §1, §2
# [3] = tested on: K. Pneumonia 123132; test: Growth inhibition assay (MIC); assay type: cell-based, Klebsiella pneumoniae
# Description: as §1, §2
# [4] = tested on: K. Pneumonia K6, ATCC 700603; test: Growth inhibition assay (MIC); assay type: cell-based, Klebsiella pneumoniae; details: multidrug resistant strain; 1% TSB, 37° C., 20 hrs
# Description: as §1, §2
# [5] = tested on: S. enterica subsp. Enterica serovar. typhi G10215 ATCC 700408; assay type: cell-based, Salmonella enterica; details: ATCC 700408, 20 h
# Description: as §1, §2
# [6] = tested on: E. coli D31; assay type: cell-based, Escherichia coli; details: D31, 20 h
# Description: as §1, §2
# [7] = in vitro; assay type: in vitro ADME, mouse; details: 25% aqueous mouse serum, 37° C.; read-out: Half-life time
# Description: Serum stability studies were carried out in duplicate as described by Hoffmann et al.. Briefly, 28 μL of an aqueous peptide or peptidomimetics solution (0.5 mg/mL) was added to 0.2 mL freshly pooled 25% mouse serum (Sigma-Aldrich GmbH, Taufkirchen, Germany) in water. The mixtures were incubated at 37° C. under gentle stirring. The proteins were precipitated with 40 μL of 15% aqueous TCA after incubation times of 0, 0.5, 1, 2, 4 and 6 h at 0° C. for 20 min before centrifuged (13500×G) at 4° C. for 5 min. The supernatants of all samples (240 μL) were neutralized with 1 mol/L aqueous NaOH and immediately stored at −20° C. The supernatants were analyzed by RP-HPLC using a linear acetonitrile gradient as described above with 0.1% TFA as ion pair reagent. Collected fractions of the main peaks were further analyzed by tandem mass spectrometry (MALDI-TOF/TOF-MS, 4700 Proteomics Analyzer, Applied Biosystems GmbH, Weiterstadt, Germany) in positive ion reflector mode using α-cyanohydroxycinnamic acid (50% CH3CN in 0.1% aqueous TFA) as matrix to identify the degradation products of the peptides and peptidomimetics, i.e., metabolites, at the different time points. Serum control samples consisted of 200 μL of pooled 25% mouse serum in water, which were also precipitated with 40 μL 15% aqueous TCA, as described before. Peptide reference samples consisted of 28 μL of the peptide stock solution diluted in 0.2 mL water and 40 μL of 15% aqueous trichloroacetic acid (TCA).
# [8] = tested on: R. radiobatter ATCC 15955; test: Growth inhibition assay (MIC); assay type: cell-based, Rhizobium radiobacter
# Description: as §1, §2
# [9] = tested on: M. luteus ATCC 10240; assay type: cell-based, Micrococcus luteus; details: ATCC 10240, 20 h
# Summary of the method: (§3)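 Peptides were serially diluted two-fold in 1% TSB, giving final concentrations from 125 μg/mL down to 60 ng/mL, and mixed with overnight bacterial culture adjusted to 5×10^6 CFU/mL in 1% TSB. After 20 hrs at 37 °C, growth was read as absorbance at 595 nm, in triplicate, with sterile water as negative control.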
# [10] = tested on: E. coli BL 21 AI; test: Growth inhibition assay (MIC); assay type: cell-based, Escherichia coli; details: 1% TSB, 37° C., 20 hrs
# Summary of the method: as §3
# [11] = multidrug resistant strain, 1% TSB, 37° C., 20 hrs
Molecule,"MIC E. coli 45849 [1, 11] [mg/L]",MIC S. typhi S5 [2] [mg/L],"MIC K. Pneumonia 123132 [3, 11] [mg/L]","MIC K. Pneumonia K6, ATCC 700603 [4] [mg/L]",MIC S. enterica subsp. Enterica serovar. typhi G10215 ATCC 700408 [5] [mg/L],MIC E. coli D31 [6] [mg/L],half-life at 0.061 mg/mL [7] [h],"MIC R. radiobatter ATCC 15955 [8, 11] [mg/L]",MIC M. luteus ATCC 10240 [9] [mg/L],MIC E. coli BL 21 AI [10] [mg/L],"MIC E. coli 45849 ([1]; 45849, 20 h) [mg/L]","MIC R. radiobatter ATCC 15955 ([8]; ATCC 15955, 20 h) [mg/L]",MIC K. Pneumonia 123132 ([3]; 20 h) [mg/L]
CC[C@H](C)[C@H](NC(=O)[C@H](Cc1ccc(O)cc1)NC(=O)[C@@H](NC(=O)[C@@H]1CCCN1C(=O)[C@H](CCCNC(=N)N)NC(=O)[C@H](CC(N)=O)NC(=O)[C@H](CC(N)=O)NC(=O)[C@@H](N)CCCN)C(C)C)C(=O)N1CCC[C@H]1C(=O)N[C@@H](CCCNC(=N)N)C(=O)N1CCC[C@H]1C(=O)N[C@@H](CCCNC(=N)N)C(=O)N1CCC[C@H]1C(=O)N1CCC[C@H]1C(=O)N[C@@H](Cc1c[nH]cn1)C(=O)N1CCC[C@H]1C(=O)N[C@@H](CCCN)C(=O)N[C@@H](CC(C)C)C(N)=O [compound 81] (H-[Orn]NNRPVYIPRPRPPHP[Orn]L-NH2),8,4,8,16,4,8,2,–,–,–,–,–,–
GNNRPVYIPQPRPPHPRI-NH2 [compound 4],–,–,–,–,–,–,0.25,–,–,–,–,–,–
CC[C@H](C)[C@H](NC(=O)[C@@H]1CCCN1C(=O)[C@H](CCCNC(=N)N)NC(=O)[C@@H]1CCCN1C(=O)[C@H](Cc1c[nH]cn1)NC(=O)[C@@H]1CCCN1C(=O)[C@@H]1CCCN1C(=O)[C@H](CCCNC(=N)N)NC(=O)[C@@H]1CCCN1C(=O)[C@H](CCCNC(=N)N)NC(=O)[C@@H]1CCCN1C(=O)[C@@H](NC(=O)[C@H](Cc1ccc(O)cc1)NC(=O)[C@@H](NC(=O)[C@@H]1CCCN1C(=O)[C@H](CCCNC(=N)N)NC(=O)[C@H](CC(N)=O)NC(=O)[C@H](CC(N)=O)NC(=O)[C@H](CCCN)NC(C)=O)C(C)C)[C@@H](C)CC)C(=O)N[C@@H](CCCNC(=N)N)C(=O)N[C@H](C(=O)O)C(C)C [compound 24] (Ac-[Orn]NNRPVYIPRPRPPHPRPIRV-OH),–,–,–,–,–,–,4,–,–,–,–,–,–
GNNRPVYIPQPRPPHPRI [compound 1],–,–,–,–,–,–,2,–,–,–,–,–,–
CC[C@H](C)[C@H](NC(=O)[C@H](Cc1ccc(O)cc1)NC(=O)[C@@H](NC(=O)[C@@H]1CCCN1C(=O)[C@H](CCCNC(=N)N)NC(=O)[C@H](CC(N)=O)NC(=O)[C@H](CC(N)=O)NC(=O)[C@H](CCCN)NC(C)=O)C(C)C)C(=O)N1CCC[C@H]1C(=O)N[C@@H](CCCNC(=N)N)C(=O)N1CCC[C@H]1C(=O)N[C@@H](CCCNC(=N)N)C(=O)N1CCC[C@H]1C(=O)N1CCC[C@H]1C(=O)N[C@@H](Cc1c[nH]cn1)C(=O)N1CCC[C@H]1C(=O)N[C@@H](CCCNC(=N)N)C(=O)N[C@@H](CC(C)C)C(=O)OC [compound 48] (Ac-[Orn]NNRPVYIPRPRPPHPRL-OMe),4,4,32,128,16,64,–,1.3,–,–,–,–,–
GNNRPVYIPRPRPPHPRLV-NH2 [compound 25],1,2,16,16,1,64,–,0.65,1.95,3.91,–,–,–
KNNRPVYIPKPRPPHPRL-NH2 [compound 21],<0.25,1,4,8,0.25 to 0.5,8,–,0.65,–,1.95 to 3.91,–,–,–
GNNRPVYIPQPRPPHPRL [compound 2],–,–,–,–,–,–,2,–,–,–,–,–,–
CC[C@H](C)[C@H](NC(=O)[C@H](Cc1ccc(O)cc1)NC(=O)[C@@H](NC(=O)[C@@H]1CCCN1C(=O)[C@H](CCCNC(=N)N)NC(=O)[C@H](CC(N)=O)NC(=O)[C@H](CC(N)=O)NC(=O)[C@H](CCCN)NC(C)=O)C(C)C)C(=O)N1CCC[C@H]1C(=O)N[C@@H](CCCN)C(=O)N1CCC[C@H]1C(=O)N[C@@H](CCCNC(=N)N)C(=O)N1CCC[C@H]1C(=O)N1CCC[C@H]1C(=O)N[C@@H](Cc1c[nH]cn1)C(=O)N1CCC[C@H]1C(=O)N[C@@H](CCCNC(=N)N)C(=O)N[C@@H](CC1CCCCC1)C(N)=O [compound 46] (Ac-[Orn]NNRPVYIP[Orn]PRPPHPR[Cha]-NH2),–,32,–,32 to 64,8,16,–,–,–,–,32,10.5,32 to 64
Ac-KNNRPVYIPKPRPPHPRL-NH2 [compound 22],1,1,16,16,1,16,–,<0.16,1.95,1.95,–,–,–
CC[C@H](C)[C@H](NC(=O)[C@H](Cc1ccc(O)cc1)NC(=O)[C@@H](NC(=O)[C@@H]1CCCN1C(=O)[C@H](CCCNC(=N)N)NC(=O)[C@H](CC(N)=O)NC(=O)[C@H](CC(N)=O)NC(=O)[C@H](CCCN)NC(C)=O)C(C)C)C(=O)N1CCC[C@H]1C(=O)N[C@@H](CCCNC(=N)N)C(=O)N1CCC[C@H]1C(=O)N[C@@H](CCCNC(=N)N)C(=O)N1CCC[C@H]1C(=O)N1CCC[C@H]1C(=O)N[C@@H](Cc1c[nH]cn1)C(=O)N1CCC[C@H]1C(=O)N[C@@H](CCCNC(=N)N)C(=O)N(C)[C@@H](CC(C)C)C(N)=O [compound 36] (Ac-[Orn]NNRPVYIPRPRPPHPR[NMeL]-NH2),4,16 to 32,32,64 to 128,4 to 8,8,–,1.3,–,–,–,–,–
GNNRPVYIPQPRPPHPRPIRV-NH2 [compound 110],–,–,–,–,–,–,6,–,–,–,–,–,–
